According to US4318916A, “Antibiotic PS-5 and derivatives having β-lactamase inhibitory activity and production thereof” (Sanraku-Ocean Co., Ltd., priority 1977, dated 1982):
In brackets after ≈: the same amount, converted by molar mass. Like-named read-outs stand apart in the source and are kept apart here.

Experiments:
[1] = tested on: Bacillus subtilis ATCC 6633; test: MIC by broth dilution (Table 8); type: cell-based; conditions: ATCC6633, 20 h, read-out: Minimum inhibitory concentration
Description: (§1) The MIC values of antibiotic PS-5 sodium salt were determined on various pathogenic microorganisms including resistant strains by the broth dilution method utilizing the BRAIN HEART INFUSION BROTH `Eiken` (EIKEN CHEMICAL CO., LTD.).
(§2) The antibiotic PS-5 sodium salt was dissolved in BRAIN HEART INFUSION BROTH `Eiken` (EIKEN CHEMICAL CO., LTD.) (pH 7.0) at concentration in the range of 5-50 μg/ml, from which appropriate dilution series were made in the same liquid medium. The microorganisms listed in Table 8 were cultivated for 18 hours in BRAIN HEART INFUSION BROTH `Eiken` at 28° C. and inoculated into the said dilution series of antibiotic PS-5 at a final inoculum size of 1×10^5 cells/ml. The cultures were allowed to stand at 35° C. for 20 hours, and then the growth of the microorganisms was read at each dilution of antibiotic PS-5. The minimum inhibitory concentration (MIC) represents the smallest concentration of the antibiotic PS-5 (sodium salt) where no propagation of the relevant microorganism was visually confirmed. As the controls, two known beta-lactam antibiotics, cephaloridine and cefoxitin were dissolved in brain heart infustion broth at pH 7.0 at concentrations ranging from 1 μg/ml to 100 μ g/ml and then diluted to make several dilution series in the above mentioned liquid medium. These samples were treated as described above for the MIC determinations.

[2] = tested on: Diplococcus pneumoniae Type III; test: MIC by broth dilution (Table 8); type: cell-based; conditions: Streptococcus pneumoniae, 20 h, read-out: Minimum inhibitory concentration
Description: as §1, §2

[3] = tested on: Staphylococcus aureus Bx-1633; test: MIC by broth dilution (Table 8); type: cell-based; conditions: BX1633, 20 h, read-out: Minimum inhibitory concentration
Description: as §1, §2

[4] = tested on: Staphylococcus aureus EDA 209 P; test: MIC by broth dilution (Table 8); type: cell-based; conditions: EDA209P, 20 h, read-out: Minimum inhibitory concentration
Description: as §1, §2

[5] = tested on: Staphylococcus aureus Smith; test: MIC by broth dilution (Table 8); type: cell-based; conditions: 20 h, read-out: Minimum inhibitory concentration
Description: as §1, §2

[6] = tested on: Streptococcus pyogenes NY-5; test: MIC by broth dilution (Table 8); type: cell-based; conditions: NY5, 20 h, read-out: Minimum inhibitory concentration
Description: as §1, §2

[7] = tested on: Alcaligenes faecalis B-326; test: MIC by broth dilution (Table 8); type: cell-based; conditions: B326, 20 h, read-out: Minimum inhibitory concentration
Description: as §1
as §2, with “determinations. In addition to the MIC values of antibiotic PS-5, those of cephaloridine and cefoxitin are included for reference.” for “determinations.”

[8] = tested on: Citrobacter freundii E-9; test: MIC by broth dilution (Table 8); type: cell-based; conditions: E9, 20 h, read-out: Minimum inhibitory concentration
Description: as §1
as §2, with “determinations. In addition to the MIC values of antibiotic PS-5, those of cephaloridine and cefoxitin are included for reference.” for “determinations.”

[9] = tested on: Enterobacter aerogenes E-19; test: MIC by broth dilution (Table 8); type: cell-based; conditions: Klebsiella aerogenes, E19, 20 h, betalactamase producer, read-out: Minimum inhibitory concentration
Description: as §1
as §2, with “determinations. In addition to the MIC values of antibiotic PS-5, those of cephaloridine and cefoxitin are included for reference.” for “determinations.”

[10] = tested on: Enterobacter cloacae E-16; test: MIC by broth dilution (Table 8); type: cell-based; conditions: E16, 20 h, betalactamase producer, read-out: Minimum inhibitory concentration
Description: as §1
as §2, with “determinations. In addition to the MIC values of antibiotic PS-5, those of cephaloridine and cefoxitin are included for reference.” for “determinations.”

[11] = tested on: Enterobacter sp. E-8; test: MIC by broth dilution (Table 8); type: cell-based; conditions: SP.E8, 20 h, read-out: Minimum inhibitory concentration
Description: as §1
as §2, with “determinations. In addition to the MIC values of antibiotic PS-5, those of cephaloridine and cefoxitin are included for reference.” for “determinations.”

[12] = tested on: Escherichia coli K 12; test: MIC by broth dilution (Table 8); type: cell-based; conditions: K12, 20 h, read-out: Minimum inhibitory concentration
Description: as §1
as §2, with “determinations. In addition to the MIC values of antibiotic PS-5, those of cephaloridine and cefoxitin are included for reference.” for “determinations.”

[13] = tested on: Klebsiella pneumoniae K-2; test: MIC by broth dilution (Table 8); type: cell-based; conditions: K2, 20 h, betalactamase producer, read-out: Minimum inhibitory concentration
Description: as §1
as §2, with “determinations. In addition to the MIC values of antibiotic PS-5, those of cephaloridine and cefoxitin are included for reference.” for “determinations.”

[14] = tested on: Proteus mirabilis P-6; test: MIC by broth dilution (Table 8); type: cell-based; conditions: P6, 20 h, resistant to kanamycin, gentamicin and tobramycin, read-out: Minimum inhibitory concentration
Description: as §1
as §2, with “determinations. In addition to the MIC values of antibiotic PS-5, those of cephaloridine and cefoxitin are included for reference.” for “determinations.”

[15] = tested on: Proteus rettgeri P-7; test: MIC by broth dilution (Table 8); type: cell-based; conditions: Providencia rettgeri, P7, 20 h, resistant to gentamicin and tobramycin, read-out: Minimum inhibitory concentration
Description: as §1
as §2, with “determinations. In addition to the MIC values of antibiotic PS-5, those of cephaloridine and cefoxitin are included for reference.” for “determinations.”

[16] = tested on: Proteus sp. P-22; test: MIC by broth dilution (Table 8); type: cell-based; conditions: 20 h, read-out: Minimum inhibitory concentration
Description: as §1
as §2, with “determinations. In addition to the MIC values of antibiotic PS-5, those of cephaloridine and cefoxitin are included for reference.” for “determinations.”

[17] = tested on: Proteus vulgaris P-5; test: MIC by broth dilution (Table 8); type: cell-based; conditions: P5, 20 h, betalactamase producer, read-out: Minimum inhibitory concentration
Description: as §1
as §2, with “determinations. In addition to the MIC values of antibiotic PS-5, those of cephaloridine and cefoxitin are included for reference.” for “determinations.”

[18] = tested on: Providencia sp. P-8; test: MIC by broth dilution (Table 8); type: cell-based; conditions: SP.P8, 20 h, resistant to kanamycin, gentamicin and tobramycin, read-out: Minimum inhibitory concentration
Description: as §1
as §2, with “determinations. In addition to the MIC values of antibiotic PS-5, those of cephaloridine and cefoxitin are included for reference.” for “determinations.”

[19] = tested on: Serratia marcescens S-18; test: MIC by broth dilution (Table 8); type: cell-based; conditions: S18, 20 h, betalactamase producer, read-out: Minimum inhibitory concentration
Description: as §1
as §2, with “determinations. In addition to the MIC values of antibiotic PS-5, those of cephaloridine and cefoxitin are included for reference.” for “determinations.”

[20] = tested on: Staphylococcus aureus Russell; test: MIC by broth dilution (Table 8); type: cell-based; conditions: 20 h, read-out: Minimum inhibitory concentration
Description: as §1
as §2, with “determinations. In addition to the MIC values of antibiotic PS-5, those of cephaloridine and cefoxitin are included for reference.” for “determinations.”

[21] = tested on: male ddy mice; type: in vivo; conditions: 500 mg/kg intraperitoneally
Description: An aqueous solution of the antibiotic PS-5 sodium salt was intraperitoneally administered to male ddy mice (Shizuoka) at the dose of 500 mg/kg.

CCC1C(=O)N2C(C(=O)O)=C(SCCNC(C)=O)CC12 (single isomer, unassigned) [Antibiotic PS-5]
MIC ([1]; Bacillus subtilis ATCC 6633): 0.16 µg/mL (≈ 0.536 µM)
MIC ([2]; Diplococcus pneumoniae Type III, 10% horse blood supplemented into the medium): 0.02 µg/mL (≈ 0.067 µM)
MIC ([3]; Staphylococcus aureus Bx-1633, PS-5 as sodium salt): 0.16 µg/mL
MIC ([4]; Staphylococcus aureus EDA 209 P, PS-5 as sodium salt): 0.16 µg/mL
MIC ([5]; Staphylococcus aureus Smith, PS-5 as sodium salt): 0.31 µg/mL
MIC ([6]; Streptococcus pyogenes NY-5, 10% horse blood supplemented into the medium): 0.08 µg/mL (≈ 0.268 µM)
MIC ([7]; Alcaligenes faecalis B-326): 0.78 µg/mL (≈ 2.61 µM)
MIC ([8]; Citrobacter freundii E-9, betalactamase producer): 3.13 µg/mL (≈ 10.5 µM)
MIC [9]: 6.25 µg/mL (≈ 20.9 µM)
MIC [10]: 12.5 µg/mL (≈ 41.9 µM)
MIC ([11]; Enterobacter sp. E-8, betalactamase producer): 3.13 µg/mL (≈ 10.5 µM)
MIC ([12]; Escherichia coli K 12): 2.5 µg/mL (≈ 8.38 µM)
MIC [13]: 3.13 µg/mL (≈ 10.5 µM)
MIC [14]: 6.25 µg/mL (≈ 20.9 µM)
MIC [15]: 3.13 µg/mL (≈ 10.5 µM)
MIC ([16]; Proteus sp. P-22): 6.25 µg/mL (≈ 20.9 µM)
MIC [17]: 12.5 µg/mL (≈ 41.9 µM)
MIC [18]: 6.25 µg/mL (≈ 20.9 µM)
MIC [19]: 6.25 µg/mL (≈ 20.9 µM)
MIC ([20]; Staphylococcus aureus Russell, PS-5 as sodium salt): 0.31 µg/mL
Deaths after intraperitoneal administration [21]: does not provoke any dead

CCC1C(=O)N2C(C(=O)OC(c3ccccc3)(c3ccccc3)c3ccccc3)=C(SCCNC(C)=O)CC12 (single isomer, unassigned) [Trityl PS-5]
Deaths after intraperitoneal administration ([21]; listed as trityl ester of the antibiotic PS-5, 500 mg/kg): did not provoke any dead
Deaths after intraperitoneal administration ([21]; listed as trityl ester, 500 mg/kg): does not provoke any dead

O=C(Cc1cccs1)N[C@@H]1C(=O)N2C(C(=O)[O-])=C(C[n+]3ccccc3)CS[C@H]12 [Cephaloridine, cephaloridine]
MIC ([1]; Bacillus subtilis): 0.031 µg/mL (≈ 0.0746 µM)
MIC [2]: 0.031 µg/mL (≈ 0.0746 µM)
MIC ([3]; Staphylococcus aureus): 0.031 µg/mL (≈ 0.0746 µM)
MIC ([4]; Staphylococcus aureus): 0.031 µg/mL (≈ 0.0746 µM)
MIC ([5]; Staphylococcus aureus): 0.031 µg/mL (≈ 0.0746 µM)
MIC ([6]; Streptococcus pyogenes): 0.008 µg/mL (≈ 0.0193 µM)
MIC ([7]; Alcaligenes faecalis): 6.25 µg/mL (≈ 15 µM)
MIC ([8]; Citrobacter freundii): > 100 µg/mL
MIC [9]: > 100 µg/mL
MIC [10]: > 100 µg/mL
MIC ([11]; Enterobacter): 3.13 µg/mL (≈ 7.53 µM)
MIC ([12]; Escherichia coli): 2.5 µg/mL (≈ 6.02 µM)
MIC [13]: 6.25 µg/mL (≈ 15 µM)
MIC [14]: 12.5 µg/mL (≈ 30.1 µM)
MIC [15]: 100 µg/mL (≈ 241 µM)
MIC [16]: > 100 µg/mL
MIC [17]: > 100 µg/mL
MIC [18]: > 100 µg/mL
MIC [19]: > 100 µg/mL
MIC ([20]; Staphylococcus aureus): 0.125 µg/mL (≈ 0.301 µM)
